The source made the active and inactive calls. No rule for the calls is given here.
Tested on: CCRIS mutagenicity, Ames/micronucleus/aberration tests
Experiment: CCRIS mutagenicity studies
[1] = Test System: AMES SALMONELLA TYPHIMURIUM, Strain/Indicator: TA98, Metabolic Activation: NONE, Method: STANDARD PLATE
[2] = Test System: AMES SALMONELLA TYPHIMURIUM, Strain/Indicator: TA100, Metabolic Activation: NONE, Method: STANDARD PLATE
[3] = Test System: AMES SALMONELLA TYPHIMURIUM, Strain/Indicator: TA1537, Metabolic Activation: NONE, Method: STANDARD PLATE
[4] = Test System: AMES SALMONELLA TYPHIMURIUM, Strain/Indicator: TA1538, Metabolic Activation: NONE, Method: STANDARD PLATE
[5] = Test System: AMES SALMONELLA TYPHIMURIUM, Strain/Indicator: TA1538, Metabolic Activation: RAT, LIVER, S-9, AROCLOR 1254, Method: STANDARD PLATE
[6] = Test System: AMES SALMONELLA TYPHIMURIUM, Strain/Indicator: TA98, Metabolic Activation: NONE, Method: PREINCUBATION
[7] = Test System: AMES SALMONELLA TYPHIMURIUM, Strain/Indicator: TA98, Metabolic Activation: RAT, LIVER, S-9, PHENOBARBITAL, Method: STANDARD PLATE
[8] = Test System: AMES SALMONELLA TYPHIMURIUM, Strain/Indicator: TA100, Metabolic Activation: RAT, LIVER, S-9, PHENOBARBITAL, Method: STANDARD PLATE

Which results are given for `N#CCCN`?
mutagenic call (Test System: AMES SALMONELLA TYPHIMURIUM, Strain/Indicator: TA98, Metabolic Activation: HAMSTER, LIVER, S-9, AROCLOR 1254, Method: STANDARD PLATE): inactive; negative; mutagenic call [1]: inactive; negative; mutagenic call (Test System: AMES SALMONELLA TYPHIMURIUM, Strain/Indicator: TA98, Metabolic Activation: RAT, LIVER, S-9, AROCLOR 1254, Method: STANDARD PLATE): inactive; negative; mutagenic call (Test System: AMES SALMONELLA TYPHIMURIUM, Strain/Indicator: TA100, Metabolic Activation: HAMSTER, LIVER, S-9, AROCLOR 1254, Method: STANDARD PLATE): inactive; negative; mutagenic call [2]: inactive; negative; mutagenic call (Test System: AMES SALMONELLA TYPHIMURIUM, Strain/Indicator: TA100, Metabolic Activation: RAT, LIVER, S-9, AROCLOR 1254, Method: STANDARD PLATE): inactive; negative; mutagenic call (Test System: AMES SALMONELLA TYPHIMURIUM, Strain/Indicator: TA1535, Metabolic Activation: HAMSTER, LIVER, S-9, AROCLOR 1254, Method: STANDARD PLATE): inactive; negative; mutagenic call (Test System: AMES SALMONELLA TYPHIMURIUM, Strain/Indicator: TA1535, Metabolic Activation: NONE, Method: STANDARD PLATE): inactive; negative; mutagenic call (Test System: AMES SALMONELLA TYPHIMURIUM, Strain/Indicator: TA1535, Metabolic Activation: RAT, LIVER, S-9, AROCLOR 1254, Method: STANDARD PLATE): inactive; negative; mutagenic call (Test System: AMES SALMONELLA TYPHIMURIUM, Strain/Indicator: TA1537, Metabolic Activation: HAMSTER, LIVER, S-9, AROCLOR 1254, Method: STANDARD PLATE): inactive; negative; mutagenic call [3]: inactive; negative; mutagenic call (Test System: AMES SALMONELLA TYPHIMURIUM, Strain/Indicator: TA1537, Metabolic Activation: RAT, LIVER, S-9, AROCLOR 1254, Method: STANDARD PLATE): inactive; negative; mutagenic call (Test System: AMES SALMONELLA TYPHIMURIUM, Strain/Indicator: TA1538, Metabolic Activation: HAMSTER, LIVER, S-9, AROCLOR 1254, Method: STANDARD PLATE): inactive; negative; mutagenic call [4]: inactive; negative; mutagenic call [5]: inactive; negative; mutagenic call (Test System: Mouse lymphoma, Strain/Indicator: L5178Y (tk+/tk-), Metabolic Activation: None, Method: Suspension/plate): inactive; inconclusive (previous evaluation negative); mutagenic call (Test System: Mouse lymphoma, Strain/Indicator: L5178Y (tk+/tk-), Metabolic Activation: Rat, Liver, S-9, Aroclor 1254, Method: Suspension/plate): inactive; negative

For `Cn1c(NS(=O)(=O)O)nc2c3nc(CO)cnc3ccc21`, which mutagenic call [6] is on record?
The mutagenic call was “inactive; negative”.

What about the mutagenic call (Test System: AMES SALMONELLA TYPHIMURIUM, Strain/Indicator: TA98, Metabolic Activation: RAT, LIVER, S-9, AROCLOR 1254, Method: PREINCUBATION) of the same molecule?
Its mutagenic call is “inactive; negative”.

Which results are given for `OC[C@@H](O)[C@@H](O[C@@H]1O[C@H](CO)[C@H](O)[C@H](O)[C@H]1O)[C@H](O)[C@@H](O)CO`?
mutagenic call [6]: inactive; negative; mutagenic call (Test System: AMES SALMONELLA TYPHIMURIUM, Strain/Indicator: TA98, Metabolic Activation: RAT, LIVER, S-9, PHENOBARBITAL AND 5,6-BENZOFLAVONE, Method: PREINCUBATION): inactive; negative; mutagenic call (Test System: AMES SALMONELLA TYPHIMURIUM, Strain/Indicator: TA100, Metabolic Activation: NONE, Method: PREINCUBATION): inactive; negative; mutagenic call (Test System: AMES SALMONELLA TYPHIMURIUM, Strain/Indicator: TA100, Metabolic Activation: RAT, LIVER, S-9, PHENOBARBITAL AND 5,6-BENZOFLAVONE, Method: PREINCUBATION): inactive; negative; mutagenic call (Test System: AMES SALMONELLA TYPHIMURIUM, Strain/Indicator: TA1535, Metabolic Activation: NONE, Method: PREINCUBATION): inactive; negative; mutagenic call (Test System: AMES SALMONELLA TYPHIMURIUM, Strain/Indicator: TA1535, Metabolic Activation: RAT, LIVER, S-9, PHENOBARBITAL AND 5,6-BENZOFLAVONE, Method: PREINCUBATION): inactive; negative; mutagenic call (Test System: AMES SALMONELLA TYPHIMURIUM, Strain/Indicator: TA1537, Metabolic Activation: NONE, Method: PREINCUBATION): inactive; negative; mutagenic call (Test System: AMES SALMONELLA TYPHIMURIUM, Strain/Indicator: TA1537, Metabolic Activation: RAT, LIVER, S-9, PHENOBARBITAL AND 5,6-BENZOFLAVONE, Method: PREINCUBATION): inactive; negative; mutagenic call (Test System: E. COLI, Strain/Indicator: WP2 UVRA, Metabolic Activation: NONE, Method: PREINCUBATION): inactive; negative; mutagenic call (Test System: E. COLI, Strain/Indicator: WP2 UVRA, Metabolic Activation: RAT, LIVER, S-9, PHENOBARBITAL AND 5,6-BENZOFLAVONE, Method: PREINCUBATION): inactive; negative

Which mutagenic call (Test System: UDS RAT HEPATOCYTES, Strain/Indicator: THY INCORP, Metabolic Activation: NONE, Method: AUTORADIOGRAPHY) does the source give for `CC(=O)O[C@@]1(C)C(=O)OC/C2=C/CN(C)CC[C@@H](OC(=O)[C@]3(C[C@H]1C)O[C@@H]3C)C2=O` here?
The mutagenic call was “active; positive”.

`CC1(C)O[C@@H]1COc1c2occc2cc2ccc(=O)oc12` was tested. Which mutagenic call (Test System: AMES SALMONELLA TYPHIMURIUM, Strain/Indicator: TA92, Metabolic Activation: NONE, Method: SPOT TEST) did it give?
Its mutagenic call is “inactive; negative”.

And the mutagenic call (Test System: AMES SALMONELLA TYPHIMURIUM, Strain/Indicator: TA92, Metabolic Activation: RAT, LIVER, S-9, AROCLOR 1254, Method: SPOT TEST)?
Its mutagenic call is “inactive; negative”.

What about the mutagenic call (Test System: AMES SALMONELLA TYPHIMURIUM, Strain/Indicator: TA94, Metabolic Activation: NONE, Method: SPOT TEST) of the same molecule?
The mutagenic call was “inactive; negative”.

What about the mutagenic call (Test System: AMES SALMONELLA TYPHIMURIUM, Strain/Indicator: TA94, Metabolic Activation: RAT, LIVER, S-9, AROCLOR 1254, Method: SPOT TEST) of the same molecule?
Its mutagenic call is “inactive; negative”.

What about the mutagenic call (Test System: AMES SALMONELLA TYPHIMURIUM, Strain/Indicator: TA97, Metabolic Activation: NONE, Method: SPOT TEST) of the same molecule?
The mutagenic call was “inactive; negative”.

What about the mutagenic call (Test System: AMES SALMONELLA TYPHIMURIUM, Strain/Indicator: TA97, Metabolic Activation: RAT, LIVER, S-9, AROCLOR 1254, Method: SPOT TEST) of the same molecule?
The mutagenic call was “inactive; negative”.

And the mutagenic call (Test System: AMES SALMONELLA TYPHIMURIUM, Strain/Indicator: TA98, Metabolic Activation: NONE, Method: SPOT TEST)?
The mutagenic call was “inactive; negative”.

What about the mutagenic call (Test System: AMES SALMONELLA TYPHIMURIUM, Strain/Indicator: TA98, Metabolic Activation: RAT, LIVER, S-9, AROCLOR 1254, Method: SPOT TEST) of the same molecule?
The mutagenic call was “inactive; negative”.

What about the mutagenic call (Test System: AMES SALMONELLA TYPHIMURIUM, Strain/Indicator: TA100, Metabolic Activation: NONE, Method: SPOT TEST) of the same molecule?
The mutagenic call was “inactive; negative”.

What about the mutagenic call (Test System: AMES SALMONELLA TYPHIMURIUM, Strain/Indicator: TA100, Metabolic Activation: RAT, LIVER, S-9, AROCLOR 1254, Method: SPOT TEST) of the same molecule?
Its mutagenic call is “inactive; negative”.

What about the mutagenic call (Test System: AMES SALMONELLA TYPHIMURIUM, Strain/Indicator: TA102, Metabolic Activation: NONE, Method: SPOT TEST) of the same molecule?
Its mutagenic call is “inactive; negative”.

What about the mutagenic call (Test System: AMES SALMONELLA TYPHIMURIUM, Strain/Indicator: TA102, Metabolic Activation: RAT, LIVER, S-9, AROCLOR 1254, Method: SPOT TEST) of the same molecule?
Its mutagenic call is “inactive; negative”.

With `N=C(N)c1cc2ccc(Br)cc2[nH]1` as the molecule, how does the mutagenic call [1] read?
Its mutagenic call is “inactive; negative”.

And the mutagenic call [7]?
Its mutagenic call is “inactive; negative”.

And the mutagenic call [2]?
The mutagenic call was “inactive; negative”.

What about the mutagenic call [8] of the same molecule?
Its mutagenic call is “inactive; negative”.

`CC(Br)(CO)CBr` (centres undefined) was tested. Which mutagenic call [2] did it give?
The mutagenic call was “inactive; negative”.

`CC1=C(C)C2(C3=CC(=O)C=CC3=Nc3ccc(O)cc32)C(C)=C(C)C1=O` was tested. Which mutagenic call [4] did it give?
Its mutagenic call is “inactive; negative”.

And the mutagenic call [5]?
Its mutagenic call is “inactive; negative”.

Which mutagenic call (Test System: AMES SALMONELLA TYPHIMURIUM, Strain/Indicator: TA98, Metabolic Activation: NONE', Method: STANDARD PLATE) does the source give for `CC(=O)Oc1c(OC(C)=O)c2c([N+](=O)[O-])ccc3c4ccccc4c4cccc1c4c23` here?
The mutagenic call was “active; positive”.

And the mutagenic call [2]?
The mutagenic call was “active; positive”.

What does the source list for `Cc1c2ccncc2c(C)c2c1[nH]c1ccc(N)cc12`?
mutagenic call [1]: active; positive; mutagenic call [7]: active; positive; mutagenic call [2]: inactive; negative; mutagenic call [8]: inactive; negative; mutagenic call [3]: active; positive; mutagenic call (Test System: AMES SALMONELLA TYPHIMURIUM, Strain/Indicator: TA1537, Metabolic Activation: RAT, LIVER, S-9, PHENOBARBITAL, Method: STANDARD PLATE): active; positive; mutagenic call [4]: active; positive; mutagenic call (Test System: AMES SALMONELLA TYPHIMURIUM, Strain/Indicator: TA1538, Metabolic Activation: RAT, LIVER, S-9, PHENOBARBITAL, Method: STANDARD PLATE): active; positive

From PubChem BioAssay AID1259407 (Chemical Carcinogenesis Research Information System (CCRIS), 2018)
